Experimental findings from patent publication US6803030B2, “Bile acids conjugates with metal ion chelates and the use thereof” (Bracco Imaging S.p.A., priority 2000, dated 2004) are described below.

The nature of this data set: Pharmacokinetics screening in rats (biliary and urinary excretion, residual tissue content of gadolinium by ICP-AES). It counts as in vivo. Conditions: for Biliary % of the injected dose / Urinary % of the injected dose: anaesthetised CD(SD)BR male rats, i.v. 0.1 mmol/kg. Here is the method: The experimentation was performed with the complex compound of example 1.
The screening was performed in 3 anaesthetised CD(SD)BR male rats (Charles River Italia).
The animals were maintained according to EEC Council Directive […] as included in Italian law DL116/92 (experimental typology KIN 3).
The contrast agent was injected in the vena saphena at the single dose of 0.1 mmol.kg^−1, injection rate of 6 mL-min^−1.
After the administration of the complex compound, the collection of the biological fluids in the anaesthetised rats was performed by cannulation of urinary bladder and biliary duct. The urine was collected at 0 to 60, 60 to 120, 120 to 240, 240 to 480 min after injection; the bile at −30 to 0, 0 to 15, 15 to 30, 30 to 60, 60 to 120, 120 to 240, 240 to 480 min after injection.
Animals were killed at the end of the studies by exanguination from abdominal aorta.
Blood, liver and kidneys were collected after the sacrifice for the assay of gadolinium by inductively coupled plasma atomic emission ICP-AES.

Setting [1] is: anaesthetised rats, intravenous, 0 to 480 min period.
Where [2] appears, read: anaesthetised rats, intravenous, at 480 min after administration.

Take “Gadolinium complex of [3α[3(S),4(S)],5β,12α]-3-[[[trans-3,4-bis[[[5-[bis[2-[bis(carboxymethyl)amino]ethyl]amino]-5-carboxypentyl]amino]carbonyl]-1-pyrrolidinyl]carbonyl]oxy]-12-hydroxycholan-24-oic acid salified with sodium (1:5) [Example 1]”: the “Biliary % of the injected dose” value was 0.0102 ± 0.0010 % of the injected dose (collection time 0 to 15 min); 0.0208 ± 0.0012 % of the injected dose (collection time 0 to 30 min); 0.0374 ± 0.0023 % of the injected dose (collection time 0 to 60 min); 0.0561 ± 0.0052 % of the injected dose (collection time 0 to 120 min); 0.0950 ± 0.0073 % of the injected dose (collection time 0 to 240 min); 0.175 ± 0.020 % of the injected dose (collection time 0 to 480 min). The “Urinary % of the injected dose” value runs as follows: (collection time 0 to 60 min) 11.2 ± 4.6 % of the injected dose; (collection time 0 to 120 min) 18.6 ± 5.0 % of the injected dose; (collection time 0 to 240 min) 27.9 ± 5.3 % of the injected dose; (collection time 0 to 480 min) 36.2 ± 2.7 % of the injected dose. The biliary excretion under setting [1] was 0.175 % of ID. In addition, under setting [1], the urinary excretion was 36 % of ID. Further, the “residual content in kidney” value under setting [2] is recorded as 6.7 % of the injected dose. Moreover, the “residual content in liver” value under setting [2] is given as 2.564 % of the injected dose. Also, the “residual content in plasma” value under setting [2] is on record as 14.3 % of the injected dose.
